The values below come from patent publication US10738013B2, “Eluxadoline crystalline forms and processes for their preparation” (priority 2017, dated 2020).

Series [1] can be described thus: Dissolution test. The class given is physicochemical. The note with it: 50 mM phosphate buffer pH=7.4, 37° C., 110 rpm. Here is the method: Dissolution tests were performed by means of Sotax AT7 Smart equipped with 6×800 mL volume vessels and using a 50 mM phosphate buffer pH=7.4, previously heated to 37° C. 20 mg of the sample to be tested were placed in each vessel, and stirred (with paddles) at 110 rpm for 60 minutes at 37±0.2° C. Aliquots were taken at 5, 10, 20, 30, 45 and 60 min, filtered through 0.45 μm Chromafil Xtra RC 45/25 syringe filter and analysed by UV/VIS spectrometer Perkin Elmer Lambda 35, 1 cm quartz cell (absorbance at 203 nm). pH was determined using a Mettler Toledo pH Meter FE20 equipped with a InLab®420 electrode.
A portion of the product was subjected to a dissolution test in 50 mM phosphate buffer at pH=7.4 giving the results summarised below: […]

Series [2] in a line: Thermal (polymorphic) stability at 120° C. by XRPD. The class given is physicochemical. The note with it: maintained at 120° C. for 24 or 48 hours, cooled to room temperature. As to the method:
By “polymorphically stable” it is meant that the crystalline Form α′ of the present invention when stored under stressed conditions i.e., up to a temperature of 120° C. for 24 or 48 hours, show no signs of crystallinity associated to other polymorphs of eluxadoline (e.g. Form β) as judged by the absence of their relevant peaks in an X-ray powder diffractogram (XRPD).
Analyses were performed on a Bruker AXS D8 Advance diffractometer (40 kV, 40 mA, λ=1.5418 Å), equipped with a linear Lynxeye position sensitive detector, set at 300 mm from the sample (Ni-filtered Cu-Kα1,2 radiation). Data collection was made in coupled mode and in theta-theta configuration, in the 3-30° 2-theta, sampling with a 0.02° step scan. Samples were gently ground in an agate mortar, and then deposited in the 0.2 mm-deep hollow of a silicon monocrystal zero background plate.
The polymorphically and chemically stable form α′ of eluxadoline, prepared as described in Examples 10 to 12, were maintained at 120° C. for 24 or 48 hours.

For the compound `COc1ccc(CN(C(=O)[C@@H](N)Cc2c(C)cc(C(N)=O)cc2C)[C@@H](C)c2nc(-c3ccccc3)c[nH]2)cc1C(=O)O` [form α′, 5-({[(2S)-2-amino-3-(4-carbamoyl-2,6-dimethylphenyl)propanoyl][(1S)-1-(4-phenyl-1H-imidazol-2-yl)ethyl]amino}methyl)-2-methoxybenzoic acid], the “% dissolved” value in series [1] (5 min) is 6.06%; in series [1] (10 min), 13.93%; in series [1] (20 min), 17.81%; in series [1] (30 min), 27.87%; in series [1] (45 min), 38.40%; in series [1] (60 min), 60.17%. The “XRPD after thermal stress (polymorphic stability)” value in series [2] is listed as “XRPD spectrum corresponding to the one obtained in example 10”.
